What was measured:
[1] = test system: cells dissociated from PDX FLC1 and FLC5; assay: Primary high throughput screen, 1μM, 72 h; format: cell-based, human; details: pass = survival <60%
FLC PDX cells = assay: Validation screen on cells dissociated from FLC PDX; format: cell-based, human; details: for Effect on FLC PDX cells in vitro (dose response, normalized percent survival): 10nM-10μM, FLC1-6; for Therapeutic window for FLC over PHH: FLC PDX cells compared with PHH; for Efficacy ranking in the screen: ranked by average −log10EC50 for FLC1-5 minus −log10EC50 for PHH
[2] = test system: cells dissociated directly from patient tumors (FLC.T6-T11); assay: Direct from patient in vitro screening; format: cell-based, human; details: for Sensitivity of cells tested directly from patients: 10μM-10nM, 72h, Cell Titer Glo
FLC1 cells = assay: Role of ROS: survival with or without N-acetyl cysteine 10mM; format: cell-based, human; details: NAC 10mM, 72 h
[3] = test system: primary human hepatocytes (PHH); assay: Validation counter-screen on primary human hepatocytes; details: 72 h; for Effect on PHH (dose response, normalized percent survival): up to 10 μM

Structure (SMILES): N.N.O=C([O-])C1(C(=O)[O-])CCC1.[Pt+2] [carboplatin]
- Result in primary screen (normalized percent survival) [1]: no to minimal activity

Structure (SMILES): CC(C)(C)OC(=O)N[C@H]1CCCCC/C=C\[C@@H]2C[C@@]2(C(=O)NS(=O)(=O)C2CC2)NC(=O)[C@@H]2C[C@@H](OC(=O)N3Cc4cccc(F)c4C3)CN2C1=O [danoprevir]
- Result in primary screen (normalized percent survival) [1]: did not see any effect

Structure (SMILES): CC(=O)O/N=C1\C(=O)N(Cc2cc(Cl)ccc2Cl)c2ccc(Cl)cc21 [LDN-57444]
- Result in primary screen (normalized percent survival) [1]: did not see any effect

Structure (SMILES): CCc1c2c(nc3ccc(OC(=O)N4CCC(N5CCCCC5)CC4)cc13)-c1cc3c(c(=O)n1C2)COC(=O)[C@]3(O)CC [irinotecan]
- Effect on FLC PDX cells in vitro (dose response, normalized percent survival) (FLC PDX cells; 72 h): no effect

Structure (SMILES): O=C(c1ccc(F)c(F)c1Nc1ccc(I)cc1F)N1CC(O)([C@@H]2CCCCN2)C1 [cobimetinib]
- Result in primary screen (normalized percent survival) [1]: None

Structure (SMILES): CC(C)C[C@H](NC(=O)CNC(=O)c1cc(Cl)ccc1Cl)B1OC(=O)C(CC(=O)O)(CC(=O)O)O1 [MLN9708]
- Result in primary screen (normalized percent survival) [1]: did not see any effect

Structure (SMILES): C=C1C[C@@H]2[C@H](CC[C@]3(C)C(=O)CC[C@@H]23)[C@@]2(C)C=CC(=O)C=C12 [exemestane]
- Result in primary screen (normalized percent survival) [1]: did not pass our primary screen

Structure (SMILES): C[C@]12CCC(=O)C(O)=C1CC[C@@H]1[C@@H]2CC[C@]2(C)C(=O)CC[C@@H]12 [formestane]
- Result in primary screen (normalized percent survival) [1]: did not pass our primary screen

Structure (SMILES): CC(C)c1c2cc(-c3ccnc(NC4CCC(NC5CCOCC5)CC4)n3)ccc2nn1C (stereo not drawn) [LY2857785]
- Sensitivity of cells tested directly from patients [2]: some sensitivity
- Effect of N-acetyl cysteine (NAC) on the toxicity of the drug (FLC1 cells): mildly attenuated

Structure (SMILES): CNC(=O)c1cc(Oc2ccc(NC(=O)Nc3ccc(Cl)c(C(F)(F)F)c3)c(F)c2)ccn1 [regorafenib]
- Therapeutic window for FLC over PHH (FLC PDX cells): no therapeutic window

Structure (SMILES): COc1cccc2cc(-c3nc([C@H]4CC[C@H](C(=O)O)CC4)n4ncnc(N)c34)[nH]c12 [OSI-027]
- Therapeutic window for FLC over PHH (FLC PDX cells): no therapeutic window

Structure (SMILES): CNC(=O)c1cccc(-c2ccc3c(N4CCOC[C@@H]4C)nc(N4CCOC[C@@H]4C)nc3n2)c1 [AZD2014]
- Therapeutic window for FLC over PHH (FLC PDX cells): no therapeutic window

Structure (SMILES): CNC(=O)Nc1ccc(-c2nc(N3CC4CCC(C3)O4)c3cnn(C4CCC5(CC4)OCCO5)c3n2)cc1 [WYE-125132]
- Therapeutic window for FLC over PHH (FLC PDX cells): no therapeutic window

Structure (SMILES): CC1(C)C=C(CN2C/C(=C\c3ccc(F)cc3)C(=O)/C(=C/c3ccc(F)cc3)C2)C(C)(C)N1O [HO3867]
- Effect on FLC PDX cells in vitro (dose response, normalized percent survival) (FLC PDX cells; 72 h): no effect

Structure (SMILES): Cn1cnc2c(F)c(Nc3ccc(Br)cc3F)c(C(=O)NOCCO)cc21 [binimetinib]
- Result in primary screen (normalized percent survival) [1]: None

Structure (SMILES): Cc1cc(I)ccc1Nc1c(C(=O)NOCC2CC2)cc(F)c(F)c1F [PD198306]
- Result in primary screen (normalized percent survival) [1]: None

Structure (SMILES): CN(C)Cc1cccc(N/C(=C2\C(=O)Nc3cc(C(=O)N(C)C)ccc32)c2ccccc2)c1 [BIX02189]
- Result in primary screen (normalized percent survival) [1]: None

Structure (SMILES): O=C(NC[C@H](O)CO)c1ccncc1Nc1ccc(I)cc1F [pimasertib]
- Result in primary screen (normalized percent survival) [1]: None

Structure (SMILES): CNC(=O)c1cc(Oc2ccc(NC(=O)Nc3ccc(Cl)c(C(F)(F)F)c3)cc2)ccn1 [Sorafenib]
- Therapeutic window for FLC over PHH (FLC PDX cells): no therapeutic window

Structure (SMILES): C#Cc1cccc(Nc2ncnc3cc(OCCOC)c(OCCOC)cc23)c1 [Erlotinib]
- Effect on FLC PDX cells in vitro (dose response, normalized percent survival) (FLC PDX cells; 72 h): no effect

Structure (SMILES): CC(C)C[C@H](NC(=O)[C@@H](NC(=O)c1cccc(-c2ccccc2)n1)[C@@H](C)O)B(O)O [delanzomib]
- Result in primary screen (normalized percent survival) [1]: did not see any effect

Structure (SMILES): CC1(C)CCC(c2ccc(Cl)cc2)=C(CN2CCN(c3ccc(C(=O)NS(=O)(=O)c4ccc(N[C@H](CCN5CCOCC5)CSc5ccccc5)c(S(=O)(=O)C(F)(F)F)c4)cc3)CC2)C1 [navitoclax]
- Efficacy ranking in the screen (FLC PDX cells): fifth
- Efficacy ranking in the screen (FLC PDX cells; listed as Navitoclax): 5

Structure (SMILES): CCc1c2c(nc3ccc(O)cc13)-c1cc3c(c(=O)n1C2)COC(=O)[C@]3(O)CC [SN-38]
- Effect on FLC PDX cells in vitro (dose response, normalized percent survival) (FLC PDX cells; 72 h): effective only against FLC1,3,4
- Efficacy ranking in the screen (FLC PDX cells): 13
- Sensitivity of cells tested directly from patients [2]: sensitive
- Drug sensitivity of FLC.T6 compared with derived PDX FLC6 (EC50) ([2]; cells direct from patient tumor vs cells from its PDX): correlated well
- Effect of N-acetyl cysteine (NAC) on the toxicity of the drug (FLC1 cells): no effect

Structure (SMILES): Cn1c(=O)c(F)c(Nc2ccc(I)cc2F)c2c(=O)n(C[C@@H](O)CO)cnc21 [TAK-733]
- Result in primary screen (normalized percent survival) [1]: None

Structure (SMILES): Cn1cnc2c(F)c(Nc3ccc(Br)cc3Cl)c(C(=O)NOCCO)cc21 [selumetinib]
- Result in primary screen (normalized percent survival) [1]: None

Structure (SMILES): COc1cccc(-c2cc(=O)c3ccccc3o2)c1N [PD98059]
- Result in primary screen (normalized percent survival) [1]: None

Structure (SMILES): CC(C)C[C@H](NC(=O)CNC(=O)c1cc(Cl)ccc1Cl)B(O)O [ixazomib]
- Result in primary screen (normalized percent survival) [1]: did not see any effect

Structure (SMILES): COc1ccc(S(=O)(=O)Nc2cc(-c3c(O)ccc4ccccc34)c(O)c3ccccc23)cc1 [C188-9]
- Effect on FLC PDX cells in vitro (dose response, normalized percent survival) (FLC PDX cells; 72 h): no effect

Structure (SMILES): N#C/C(=C(/N)Sc1ccc(N)cc1)c1ccccc1C(F)(F)F [SL-327]
- Result in primary screen (normalized percent survival) [1]: None

Structure (SMILES): Clc1ccc(N/N=C(\c2ccccc2)c2ccccn2)nc1 [JIB-04]
- Effect on FLC PDX cells in vitro (dose response, normalized percent survival) (FLC PDX cells; 72 h): effective against all PDX lines
- Efficacy ranking in the screen (FLC PDX cells): second
- EC50 (FLC PDX cells; read-out: EC50 against FLC PDX in vitro, across all FLC PDX lines, 72 h): 20 to 200 nM
- EC50 ([3]; read-out: EC50 PHH): > 10000 nM

Structure (SMILES): N.N.[Cl][Pt][Cl] [cisplatin]
- Result in primary screen (normalized percent survival) [1]: no to minimal activity

Structure (SMILES): CCC[C@H](NC(=O)/C(C#N)=C/c1cccc(Br)n1)c1ccccc1 [degrasyn]
- Result in primary screen (normalized percent survival) [1]: did not see any effect

Structure (SMILES): N#Cc1ccc(C(c2ccc(C#N)cc2)n2cncn2)cc1 [letrozole]
- Result in primary screen (normalized percent survival) [1]: did not pass our primary screen

Structure (SMILES): CN(NC(=O)CC(=O)NN(C)C(=S)c1ccccc1)C(=S)c1ccccc1 [Elesclomol]
- Efficacy ranking in the screen (FLC PDX cells): sixth

Structure (SMILES): O=c1[nH]cc(F)c(=O)[nH]1 [fluorouracil]
- Result in primary screen (normalized percent survival) [1]: no to minimal activity

Structure (SMILES): O=C1[O][Pt]2([NH][C@@H]3CCCC[C@H]3[NH]2)[O]C1=O [oxaliplatin]
- Result in primary screen (normalized percent survival) [1]: no to minimal activity

Structure (SMILES): COc1cc(C[C@H]2C(=O)OC[C@@H]2Cc2ccc(OC)c(OC)c2)ccc1O [arctigenin]
- Result in primary screen (normalized percent survival) [1]: None

Structure (SMILES): O=C(NOCC1CC1)c1ccc(F)c(F)c1Nc1ccc(I)cc1Cl [PD184352]
- Result in primary screen (normalized percent survival) [1]: None

Structure (SMILES): CC(C)(C#N)c1cc(Cn2cncn2)cc(C(C)(C)C#N)c1 [anastrozole]
- Result in primary screen (normalized percent survival) [1]: did not pass our primary screen

Structure (SMILES): O=P1(NCCCl)OCCCN1CCCl (stereo not drawn) [ifosfamide]
- Result in primary screen (normalized percent survival) [1]: no to minimal activity

Structure (SMILES): COc1ccc(C[C@H](NC(=O)[C@H](C)NC(=O)CN2CCOCC2)C(=O)N[C@@H](Cc2ccccc2)C(=O)C2(C)CO2)cc1 (stereo in doubt) [ONX-0914]
- Result in primary screen (normalized percent survival) [1]: did not see any effect

Structure (SMILES): CC(=O)c1cc([N+](=O)[O-])c(Sc2cccc(Cl)c2Cl)s1 [P5091]
- Efficacy ranking in the screen (FLC PDX cells): 38

Structure (SMILES): Cc1cc(C(=O)NOCCO)c(Nc2ccc(I)cc2F)n(C)c1=O [AZD8330]
- Result in primary screen (normalized percent survival) [1]: None

Structure (SMILES): COc1cc([C@@H]2c3cc4c(cc3[C@@H](O[C@@H]3O[C@@H]5CO[C@@H](C)O[C@H]5[C@H](O)[C@H]3O)[C@H]3COC(=O)[C@H]23)OCO4)cc(OC)c1O [etoposide]
- Result in primary screen (normalized percent survival) [1]: no to minimal activity

Structure (SMILES): CN(C)Cc1cccc(N/C(=C2\C(=O)Nc3cc(C(N)=O)ccc32)c2ccccc2)c1 [BIX02188]
- Result in primary screen (normalized percent survival) [1]: None

Structure (SMILES): COc1ccc(-c2ccc3ncc4c(c3c2)n(-c2ccc(N3CCNCC3)c(C(F)(F)F)c2)c(=O)n4C)cn1 [NVP-BGT226]
- Effect on FLC PDX cells in vitro (dose response, normalized percent survival) (FLC PDX cells; 72 h): potency against all FLC PDX

Structure (SMILES): Cc1cc(OCc2nnc(SC3CCCC3)n2-c2cccnc2)ccc1-c1ccc(S(C)(=O)=O)cc1 [NMS873]
- Efficacy ranking in the screen (FLC PDX cells): 72

Structure (SMILES): CCc1cnn2c(NCc3ccc[n+]([O-])c3)cc(N3CCCC[C@H]3CCO)nc12 [dinaciclib]
- Sensitivity of cells tested directly from patients [2]: some sensitivity
- Effect on PHH (dose response, normalized percent survival) [3]: toxic

Structure (SMILES): O=C(NOC[C@H](O)CO)c1ccc(F)c(F)c1Nc1ccc(I)cc1F [mirdametinib]
- Result in primary screen (normalized percent survival) [1]: None

Structure (SMILES): N#CC(=C(/N)Sc1ccccc1N)/C(C#N)=C(/N)Sc1ccccc1N [U0126]
- Result in primary screen (normalized percent survival) [1]: None

Structure (SMILES): CONC(=O)[C@H]1[C@@H](O)[C@@]2(O)c3c(OC)cc(OC)cc3O[C@@]2(c2ccc(OC)cc2)[C@@H]1c1ccccc1 [CR-1-31-B]
- Sensitivity of cells tested directly from patients [2]: sensitive
- Effect on PHH (dose response, normalized percent survival) [3]: no effect

Structure (SMILES): Cc1c(CN2CCN(C(=O)[C@H](C)O)CC2)sc2c(N3CCOCC3)nc(-c3cnc(N)nc3)nc12 [GDC0980]
- Therapeutic window for FLC over PHH (FLC PDX cells): no therapeutic window

Structure (SMILES): COc1ccc(-c2nc(N3CCOCC3)c3sc(CN(C)c4ncc(C(=O)NO)cn4)cc3n2)cn1 [fimepinostat]
- Effect on FLC PDX cells in vitro (dose response, normalized percent survival) (FLC PDX cells; 72 h): affected FLC1,3,4
- Efficacy ranking in the screen (FLC PDX cells): 22

Structure (SMILES): CC(C)C[C@H](NC(=O)[C@H](Cc1ccccc1)NC(=O)c1cnccn1)B(O)O [bortezomib]
- Result in primary screen (normalized percent survival) [1]: did not see any effect

Structure (SMILES): Nc1ccn([C@@H]2O[C@H](CO)[C@@H](O)C2(F)F)c(=O)n1 [gemcitabine]
- Result in primary screen (normalized percent survival) [1]: no to minimal activity

Structure (SMILES): N#Cc1ccc(C2CCCc3cncn32)cc1 (stereo not drawn) [fadrozole]
- Result in primary screen (normalized percent survival) [1]: did not pass our primary screen

Structure (SMILES): COc1cc(Nc2ncc3c(n2)-c2ccc(Cl)cc2C(c2c(F)cccc2OC)=NC3)ccc1C(=O)O [alisertib]
- Effect on FLC PDX cells in vitro (dose response, normalized percent survival) (FLC PDX cells; 72 h): no effect

Reference: publication PMC8734228 (Cancer discovery, 2021)
